Laboratory results from paper PMC9967275, “Screening the Pathogen Box to Discover and Characterize New Cruzain and TbrCatL Inhibitors” (Pathogens, 2023).

How the values were obtained:
cruzain = cruzain (Trypanosoma cruzi, UniProt P25779); assay: biochemical; conditions: for Cruzain 0’ Inhibition / Cruzain 10’ Inhibition: sheet "Screening results"
Outline: (§1)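 Recombinant enzymes assayed by Z-Phe-Arg-AMC cleavage at 25 °C, fluorescence 340/440 nm over 5–7 min, with 10 min or no enzyme–compound preincubation.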

TbrCatL = biological target: T1, TbrCatL (Trypanosoma brucei rhodesiense, UniProt Q95PM0); assay: TbrCatL enzymatic inhibition assay (cleavage of fluorogenic substrate Z-FR-AMC); assay type: biochemical; conditions: for TbrCatL 0’ Inhibition / TbrCatL 10’ Inhibition: sheet "Screening results"
T1 construct: Conor Caffrey (University of California San Diego)
Outline: as §1

[1] = 0’ (no pre-incubation), sheet Screening results
[2] = 10’ (pre-incubation), sheet Screening results
[3] = 0’ (pre-incubation time), Pathogen Box screening results
[4] = 10’ (pre-incubation time), Pathogen Box screening results
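Note: at 5 µM compound concentration.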

T1 sequence (Q95PM0 entry or part of it): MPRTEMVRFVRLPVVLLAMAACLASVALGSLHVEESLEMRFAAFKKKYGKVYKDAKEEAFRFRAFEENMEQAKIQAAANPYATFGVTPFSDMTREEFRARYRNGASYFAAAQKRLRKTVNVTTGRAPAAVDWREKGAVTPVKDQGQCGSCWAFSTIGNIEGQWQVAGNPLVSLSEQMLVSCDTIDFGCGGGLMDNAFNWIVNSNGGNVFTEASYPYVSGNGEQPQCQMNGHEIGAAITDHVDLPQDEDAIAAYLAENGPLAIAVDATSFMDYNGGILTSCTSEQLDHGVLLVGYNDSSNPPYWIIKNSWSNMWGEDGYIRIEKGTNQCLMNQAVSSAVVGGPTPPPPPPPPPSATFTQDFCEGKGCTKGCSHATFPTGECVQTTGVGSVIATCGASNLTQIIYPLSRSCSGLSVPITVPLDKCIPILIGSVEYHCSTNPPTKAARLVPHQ
Chain of cruzain (P25779 123-337 limits assumed): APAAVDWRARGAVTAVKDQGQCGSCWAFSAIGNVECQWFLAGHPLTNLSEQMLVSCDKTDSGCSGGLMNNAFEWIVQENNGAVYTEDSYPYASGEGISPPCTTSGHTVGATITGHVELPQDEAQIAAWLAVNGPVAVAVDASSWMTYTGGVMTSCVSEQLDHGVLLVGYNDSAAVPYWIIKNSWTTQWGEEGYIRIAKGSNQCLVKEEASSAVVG

| SMILES | Cruzain Inhibition 0’ (cruzain; [1]) [%] | Cruzain Inhibition 10’ (cruzain; [2]) [%] | TbrCatL Inhibition 0’ (TbrCatL; [1]) [%] | TbrCatL Inhibition 10’ (TbrCatL; [2]) [%] | Cruzain 0’ Inhibition (cruzain; 0’ (pre-incubation time)) [%] | Cruzain 10’ Inhibition (cruzain; 10’ (pre-incubation time)) [%] | TbrCatL 0’ Inhibition (TbrCatL; 0’ (pre-incubation time)) [%] | TbrCatL 10’ Inhibition (TbrCatL; 10’ (pre-incubation time)) [%] | also measured |
| --- | --- | --- | --- | --- | --- | --- | --- | --- | --- |
| Nc1ncnc2c1ncn2C[C@@H](O)[C@@H](O)C(=O)O [MMV689255] | 18 | 2 | 3.4 | -1.3 |  |  |  |  |  |
| CC1=Nc2ccc(Cl)cc2C(O)(c2ccc(C)cc2)N1CCN1CCCCC1 (centres unmarked) [MMV688279] |  |  |  |  | -4.5 | 0.1 | -3 | -5 |  |
| Cc1cccc(Cn2ccc(NC(=O)c3ccc4c(c3)OCO4)n2)c1 [MMV676386] | 8 | 2.6 | 2.8 | 1.8 |  |  |  |  |  |
| c1ccc(Oc2ccc(-c3cc(N4CCOCC4)n[nH]3)cc2)cc1 [MMV045105] |  |  |  |  | 1.3 | 29 | 2 | 22 |  |
| O=C(N[C@H](Cc1ccccc1)C(=O)Nc1ccccc1N1CCOCC1)c1cccs1 [MMV688845] |  |  |  |  | 1 | 4.5 | -0.3 | 2.3 |  |
| CC1CCCN(C(=O)C(C)Nc2cc(Cl)ccc2N2CCOCC2)C1 (centres unmarked) [MMV020388] | 3.4 | 4.5 | 3.3 | 0.2 |  |  |  |  |  |
| O=C(C(Cc1c[nH]c2ccccc12)NS(=O)(=O)c1ccc(Cl)cc1)N1CCCCC1 (centres unmarked) [MMV085210] | 4.5 | 6.5 | 11 | 8 |  |  |  |  |  |
| c1ccc(Oc2ccc(-c3cncc(-c4ccc5[nH]ccc5c4)n3)cc2)cc1 [MMV688178] |  |  |  |  | -6 | -6 | -10 | -21 |  |
| O=C1N(Cc2cc3ccccc3s2)CC2CN(Cc3ccccc3)CCN12 (centres unmarked) [MMV084603] | 7.6 | 6.4 | 18 | 4.6 |  |  |  |  |  |
| c1csc(-c2cnc3sc(NCC4CCOCC4)nn23)c1 [MMV010764] | 14 | 16 | 14 | 19 |  |  |  |  |  |
| C[C@H]1CS(=O)(=O)CCN1/N=C/c1ccc([N+](=O)[O-])o1 [MMV001499] |  |  |  |  | 7 | 7.5 | 5 | 11 |  |
| Nc1ncc(-c2cn[nH]c2)cc1-c1nc2cc(Cl)cnc2[nH]1 [MMV023370] |  |  |  |  | -3.5 | 8 | 3.3 | -1.5 |  |
| CN1CCC(NCc2cccc(-c3ccc(S(=O)(=O)NCc4ccccc4)cc3)c2)CC1 [MMV022029] |  |  |  |  | -2.3 | 29 | -8 | 14 |  |
| COC(=O)c1ccc(F)cc1NS(=O)(=O)c1cccc(-c2cnn(Cc3ccccc3)c2)c1 [MMV688350] | -7 | -5 | 2 | -9 |  |  |  |  |  |
| COc1ccc(C(=N)N)cc1-c1cn(-c2ccc(C(=N)N)cc2)nn1 [MMV675998] |  |  |  |  | 6 | 26 | 2 | 34 |  |
| CO[C@@H]1CN(c2ccc(C#CC3(O)CN4CCC3CC4)c(Cc3ccccc3)n2)C[C@H]1O (some centres unmarked) [MMV688415] |  |  |  |  |  |  |  |  | Cruzain Inhibition 0’ (cruzain; [3]): -4%; Cruzain Inhibition 10’ (cruzain; [4]): 16%; TbrCatL Inhibition 0’ (TbrCatL; [3]): -8%; TbrCatL Inhibition 10’ (TbrCatL; [4]): 3% |
| CCc1nc2ccccc2n1CC(O)COc1cc(C)ccc1Cl (centres unmarked) [MMV676449] | 4.5 | 6 | 1.5 | 3.5 |  |  |  |  |  |
| CCc1nc2ccc(Cl)cn2c1C(=O)NCc1ccc(N2CCC(c3ccc(OC(F)(F)F)cc3)CC2)cc1 [MMV687696] |  |  |  |  | 4.7 | 1.8 | -4.5 | -3.6 |  |
| c1cncc(NCc2ccc(-c3cc4ccncc4cc3OC3CCNCC3)s2)c1 [MMV023969] |  |  |  |  | 29 | 31 | 19 | 17 |  |
| c1ccc2c(c1)CN(CC1CC1)CC1(CCN(Cc3c[nH]c4cnccc34)CC1)O2 [MMV023183] |  |  |  |  | 3.5 | 15 | 6 | 1.8 |  |
| Nc1ncnc2n[nH]c(Cc3cccc4ccccc34)c12 [MMV688469] |  |  |  |  | -9 | 4.5 | -8 | -1.7 |  |
| CN(C(=O)c1cc2c(-c3cncnc3)cccc2[nH]1)c1ccccc1 [MMV024443] |  |  |  |  | 5 | 2.7 | -4.6 | -3.8 |  |
| CC(Oc1ccccc1)C(=O)Nc1nc(-c2ccccn2)cs1 (centres unmarked) [MMV676411] |  |  |  |  | -2.3 | 0.8 | -14 | -0.8 |  |
| COCC(C)NC(=O)CSc1ncnc2sc(-c3ccccc3)cc12 (centres unmarked) [MMV676536] | 18 | 16 | 13 | 33 |  |  |  |  |  |
| Cc1ccc2nc(C)c(-c3ccn(Cc4ccccc4)n3)n2c1 [MMV688939] |  |  |  |  |  |  |  |  | Cruzain Inhibition 0’ (cruzain; [3]): -1.4%; Cruzain Inhibition 10’ (cruzain; [4]): -4%; TbrCatL Inhibition 0’ (TbrCatL; [3]): -0.4%; TbrCatL Inhibition 10’ (TbrCatL; [4]): -9% |
| COc1ccc(C2CC(c3cccs3)=NN2C(=O)c2ccco2)cc1OC (centres unmarked) [MMV019234] | 6.6 | 8 | 7 | 22 |  |  |  |  |  |
